In patent US11965039B2, “Compstatin analogues and their medical uses” (priority 2018, dated 2024):
Starred links: 1 amine or outer side, 2 acyl side, 3 side chain; linkers in the order of their positions; H or OH if unused. Positions of bridges follow the written chain, without caps; N, C: chain ends. Non-standard residues stand in square brackets, D forms with d. Residues, ends and D or L forms follow the SMILES beside them. Groups on a side chain read outwards from the residue. *: point of attachment. C20 diacid = O=C(O)CCCCCCCCCCCCCCCCCCC(=O)*; Trp(1-Me) = Cn1cc(C[C@H](N)C(=O)O)c2ccccc21; C18 diacid = O=C(O)CCCCCCCCCCCCCCCCC(=O)*; C16 diacid = O=C(O)CCCCCCCCCCCCCCC(=O)*; γGlu = O=C(O)[C@H](CCC(=O)[*:2])N[*:1]; AEEA = NCCOCCOCC(=O)O; Sar = CNCC(=O)O

system: classical complement pathway; assay: In vitro haemolysis assay (inhibition of classical complement pathway); format: cell-based, human; conditions: human serum, sensitized sheep red blood cells; Table 3, given as upper bounds; read-out: IC50, inhibition of hemolysis
Procedure, shortened: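 Compound dilutions preincubated 15 min at room temperature with diluted human serum (titrated per batch for 70-90% maximal haemolysis), then antibody-sensitized sheep RBC (10^7/well) added for 30 min at 37 °C in Tris/casein buffer, pH 7.4. Stopped with EDTA; haemolysis read at 405 nm; IC50 by 4PL fit.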

Row | Compound | IC50
1 | CC[C@H](C)[C@H](NC(C)=O)C(=O)N[C@H]1CSSC[C@@H](C(=O)N[C@H](C(=O)N[C@@H](CCC(=O)O)C(=O)NCC(=O)N[C@@H](CCCCNC(=O)CC[C@H](NC(=O)CCCCCCCCCCCCCCC(=O)O)C(=O)O)C(N)=O)[C@@H](C)O)NC(=O)[C@H](CCCNC(=N)N)NC(=O)[C@H](Cc2c[nH]cn2)NC(=O)[C@H](CCC(=O)O)NC(=O)CNC(=O)[C@H](Cc2c[nH]c3ccccc23)NC(=O)[C@H](CC(=O)O)NC(=O)[C@H](CCC(N)=O)NC(=O)[C@H](Cc2c[nH]c3ccccc23)NC(=O)[C@H]([C@@H](C)CC)NC1=O [Compound 92] (Ac-ICIWQDWGEHRCTEGK([γGlu-C16 diacid])-NH2; disulfide 2-12) | < 1000 nM
2 | CC[C@H](C)[C@H](NC(C)=O)C(=O)N[C@H]1CSSC[C@@H](C(=O)N[C@H](C(=O)N[C@@H](CCC(=O)O)C(=O)NCC(=O)N[C@@H](CCCCNC(=O)COCCOCCNC(=O)COCCOCCNC(=O)CC[C@H](NC(=O)CCCCCCCCCCCCCCC(=O)O)C(=O)O)C(N)=O)[C@@H](C)O)NC(=O)[C@H](CCCNC(=N)N)NC(=O)[C@H](Cc2c[nH]cn2)NC(=O)[C@H](CCC(=O)O)NC(=O)CNC(=O)[C@H](Cc2c[nH]c3ccccc23)NC(=O)[C@H](CC(=O)O)NC(=O)[C@H](CCC(N)=O)NC(=O)[C@H](Cc2c[nH]c3ccccc23)NC(=O)[C@H]([C@@H](C)CC)NC1=O [Compound 93] (Ac-ICIWQDWGEHRCTEGK([AEEA-AEEA-γGlu-C16 diacid])-NH2; disulfide 2-12) | < 500 nM
3 | CC[C@H](C)[C@H](NC(C)=O)C(=O)N[C@H]1CSSC[C@@H](C(=O)N[C@H](C(=O)N[C@@H](CCC(=O)O)C(=O)NCC(=O)N[C@@H](CCC(=O)O)C(=O)N[C@@H](CCCCNC(=O)COCCOCCNC(=O)COCCOCCNC(=O)CC[C@H](NC(=O)CCCCCCCCCCCCCCC(=O)O)C(=O)O)C(N)=O)[C@@H](C)O)NC(=O)[C@H](CCCNC(=N)N)NC(=O)[C@H](Cc2c[nH]cn2)NC(=O)[C@H](CCC(=O)O)NC(=O)CNC(=O)[C@H](Cc2c[nH]c3ccccc23)NC(=O)[C@H](CC(=O)O)NC(=O)[C@H](CCC(N)=O)NC(=O)[C@H](Cc2c[nH]c3ccccc23)NC(=O)[C@H]([C@@H](C)CC)NC1=O [Compound 94] (Ac-ICIWQDWGEHRCTEGEK([AEEA-AEEA-γGlu-C16 diacid])-NH2; disulfide 2-12) | < 500 nM
4 | CC[C@H](C)[C@H](NC(C)=O)C(=O)N[C@H]1CSSC[C@@H](C(=O)N[C@H](C(=O)N[C@@H](CCC(=O)O)C(=O)NCC(=O)N[C@@H](CCCCNC(=O)COCCOCCNC(=O)COCCOCCNC(=O)CC[C@H](NC(=O)CCCCCCCCCCCCCCCCC(=O)O)C(=O)O)C(N)=O)[C@@H](C)O)NC(=O)[C@H](CCCNC(=N)N)NC(=O)[C@H](Cc2c[nH]cn2)NC(=O)[C@H](CCC(=O)O)NC(=O)CNC(=O)[C@H](Cc2c[nH]c3ccccc23)NC(=O)[C@H](CC(=O)O)NC(=O)[C@H](CCC(N)=O)NC(=O)[C@H](Cc2c[nH]c3ccccc23)NC(=O)[C@H]([C@@H](C)CC)NC1=O [Compound 96] (Ac-ICIWQDWGEHRCTEGK([AEEA-AEEA-γGlu-C18 diacid])-NH2; disulfide 2-12) | < 1000 nM
5 | CC[C@H](C)[C@H](NC(C)=O)C(=O)N[C@H]1CSSC[C@@H](C(=O)N[C@H](C(=O)N[C@@H](CCC(=O)O)C(=O)NCC(=O)N[C@@H](CCC(=O)O)C(=O)N[C@@H](CCCCNC(=O)COCCOCCNC(=O)COCCOCCNC(=O)CC[C@H](NC(=O)CCCCCCCCCCCCCCCCC(=O)O)C(=O)O)C(N)=O)[C@@H](C)O)NC(=O)[C@H](CCCNC(=N)N)NC(=O)[C@H](Cc2c[nH]cn2)NC(=O)[C@H](CCC(=O)O)NC(=O)CNC(=O)[C@H](Cc2c[nH]c3ccccc23)NC(=O)[C@H](CC(=O)O)NC(=O)[C@H](CCC(N)=O)NC(=O)[C@H](Cc2c[nH]c3ccccc23)NC(=O)[C@H]([C@@H](C)CC)NC1=O [Compound 97] (Ac-ICIWQDWGEHRCTEGEK([AEEA-AEEA-γGlu-C18 diacid])-NH2; disulfide 2-12) | < 250 nM
6 | CC[C@H](C)[C@H](NC(C)=O)C(=O)N[C@H]1CSSC[C@@H](C(=O)N[C@H](C(=O)N[C@@H](CCC(=O)O)C(=O)NCC(=O)N[C@@H](CCCCNC(=O)COCCOCCNC(=O)COCCOCCNC(=O)CC[C@H](NC(=O)CCCCCCCCCCCCCCCCCCC(=O)O)C(=O)O)C(N)=O)[C@@H](C)O)NC(=O)[C@H](CCCNC(=N)N)NC(=O)[C@H](Cc2c[nH]cn2)NC(=O)[C@H](CCC(=O)O)NC(=O)CNC(=O)[C@H](Cc2c[nH]c3ccccc23)NC(=O)[C@H](CC(=O)O)NC(=O)[C@H](CCC(N)=O)NC(=O)[C@H](Cc2c[nH]c3ccccc23)NC(=O)[C@H]([C@@H](C)CC)NC1=O [Compound 98] (Ac-ICIWQDWGEHRCTEGK([AEEA-AEEA-γGlu-C20 diacid])-NH2; disulfide 2-12) | < 500 nM
7 | CC[C@H](C)[C@H](NC(=O)[C@H](C)NC(=O)[C@H](CO)NC(=O)[C@H](CO)NC(=O)[C@H](CCC(=O)O)NC(=O)CCCCCCCCCCCCCCC(=O)O)C(=O)N[C@H]1CSSC[C@@H](C(=O)N[C@H](C(=O)N[C@@H](CCC(=O)O)C(=O)NCC(=O)N[C@@H](CCC(=O)O)C(N)=O)[C@@H](C)O)NC(=O)[C@H](CCCNC(=N)N)NC(=O)[C@H](Cc2c[nH]cn2)NC(=O)[C@H](CCC(=O)O)NC(=O)CNC(=O)[C@H](Cc2c[nH]c3ccccc23)NC(=O)[C@H](CC(=O)O)NC(=O)[C@H](CCC(N)=O)NC(=O)[C@H](Cc2c[nH]c3ccccc23)NC(=O)[C@H]([C@@H](C)CC)NC1=O [Compound 99] ({C16 diacid}-ESSAICIWQDWGEHRCTEGE-NH2; disulfide 6-16) | < 250 nM
8 | CC[C@H](C)[C@H](NC(=O)[C@H](C)NC(=O)[C@H](CO)NC(=O)CNC(=O)[C@H](CCCCNC(=O)COCCOCCNC(=O)COCCOCCNC(=O)CC[C@H](NC(=O)CCCCCCCCCCCCCCC(=O)O)C(=O)O)NC(C)=O)C(=O)N[C@H]1CSSC[C@@H](C(=O)N[C@H](C(=O)N[C@@H](CCC(=O)O)C(=O)NCC(=O)N[C@@H](CCC(=O)O)C(N)=O)[C@@H](C)O)NC(=O)[C@H](CCCNC(=N)N)NC(=O)[C@H](Cc2c[nH]cn2)NC(=O)[C@H](CCC(=O)O)NC(=O)CNC(=O)[C@H](Cc2c[nH]c3ccccc23)NC(=O)[C@H](CC(=O)O)NC(=O)[C@H](CCC(N)=O)NC(=O)[C@H](Cc2c[nH]c3ccccc23)NC(=O)[C@H]([C@@H](C)CC)NC1=O [Compound 100] (Ac-K([AEEA-AEEA-γGlu-C16 diacid])GSAICIWQDWGEHRCTEGE-NH2; disulfide 6-16) | < 500 nM
9 | CC[C@H](C)[C@H](NC(=O)[C@H](C)NC(=O)[C@H](CO)NC(=O)CNC(=O)[C@H](CCC(=O)O)NC(C)=O)C(=O)N[C@H]1CSSC[C@@H](C(=O)N[C@H](C(=O)N[C@@H](CCC(=O)O)C(=O)NCC(=O)N[C@@H](CCCCNC(=O)CC[C@H](NC(=O)CCCCCCCCCCCCCCC(=O)O)C(=O)O)C(N)=O)[C@@H](C)O)NC(=O)[C@H](CCCNC(=N)N)NC(=O)[C@H](Cc2c[nH]cn2)NC(=O)[C@H](CCC(=O)O)NC(=O)CNC(=O)[C@H](Cc2c[nH]c3ccccc23)NC(=O)[C@H](CC(=O)O)NC(=O)[C@H](CCC(N)=O)NC(=O)[C@H](Cc2c[nH]c3ccccc23)NC(=O)[C@H]([C@@H](C)CC)NC1=O [Compound 101] (Ac-EGSAICIWQDWGEHRCTEGK([γGlu-C16 diacid])-NH2; disulfide 6-16) | < 500 nM
10 | CC[C@H](C)[C@@H]1NC(=O)[C@@H](NC(=O)[C@H](Cc2ccc(O)cc2)NC(=O)[C@H](C)NC(=O)[C@H](CO)NC(=O)CNC(=O)[C@H](CCC(=O)O)NC(C)=O)CSSC[C@@H](C(=O)N(C)CC(=O)N[C@@H](CCC(=O)O)C(=O)NCC(=O)N[C@@H](CCCCN)C(=O)N[C@@H](CCCCNC(=O)CC[C@H](NC(=O)CNC(=O)CC[C@H](NC(=O)CCCCCCCCCCCCCCCCC(=O)O)C(=O)O)C(=O)O)C(N)=O)NC(=O)[C@H](CCCNC(=N)N)NC(=O)[C@H](Cc2c[nH]cn2)NC(=O)[C@H](CCC(=O)O)NC(=O)CNC(=O)[C@H](Cc2c[nH]c3ccccc23)NC(=O)[C@H](CC(=O)O)NC(=O)[C@H](CCC(N)=O)NC(=O)[C@H](Cc2cn(C)c3ccccc23)NC1=O [Compound 110] (Ac-EGSAYCI[Trp(1-Me)]QDWGEHRC[Sar]EGKK([γGlu-Gly-γGlu-C18 diacid])-NH2; disulfide 6-16) | < 250 nM
11 | CC[C@H](C)[C@@H]1NC(=O)[C@@H](NC(=O)[C@H](Cc2ccc(O)cc2)NC(=O)[C@H](CCC(=O)O)NC(=O)[C@H](CO)NC(C)=O)CSSC[C@@H](C(=O)N(C)CC(=O)N[C@@H](CCC(=O)O)C(=O)NCC(=O)N[C@@H](C)C(=O)N[C@@H](CCCCNC(=O)CC[C@H](NC(=O)CNC(=O)CC[C@H](NC(=O)CCCCCCCCCCCCCCCCC(=O)O)C(=O)O)C(=O)O)C(N)=O)NC(=O)[C@H](CCCNC(=N)N)NC(=O)[C@H](Cc2c[nH]cn2)NC(=O)[C@H](CCC(=O)O)NC(=O)CNC(=O)[C@H](Cc2c[nH]c3ccccc23)NC(=O)[C@H](CC(=O)O)NC(=O)[C@H](CCC(N)=O)NC(=O)[C@H](Cc2cn(C)c3ccccc23)NC1=O [Compound 112] (Ac-SEYCI[Trp(1-Me)]QDWGEHRC[Sar]EGAK([γGlu-Gly-γGlu-C18 diacid])-NH2; disulfide 4-14) | < 500 nM
12 | CC[C@H](C)[C@@H]1NC(=O)[C@@H](NC(=O)[C@H](Cc2ccc(O)cc2)NC(=O)[C@H](CCC(=O)O)NC(=O)CNC(=O)[C@H](CO)NC(=O)[C@H](C)NC(C)=O)CSSC[C@@H](C(=O)N(C)CC(=O)N[C@@H](CCC(=O)O)C(=O)NCC(=O)N[C@@H](CCC(=O)O)C(=O)N[C@@H](CCCCNC(=O)CC[C@H](NC(=O)CNC(=O)CC[C@H](NC(=O)CCCCCCCCCCCCCCCCC(=O)O)C(=O)O)C(=O)O)C(N)=O)NC(=O)[C@H](CCCNC(=N)N)NC(=O)[C@H](Cc2c[nH]cn2)NC(=O)[C@H](CCC(=O)O)NC(=O)CNC(=O)[C@H](Cc2c[nH]c3ccccc23)NC(=O)[C@H](CC(=O)O)NC(=O)[C@H](CCC(N)=O)NC(=O)[C@H](Cc2cn(C)c3ccccc23)NC1=O [Compound 113] (Ac-ASGEYCI[Trp(1-Me)]QDWGEHRC[Sar]EGEK([γGlu-Gly-γGlu-C18 diacid])-NH2; disulfide 6-16) | < 500 nM
